Results: ChEMBL document CHEMBL6127081, “Peptide inhibitors targeting Ras and Ras-associated protein-protein interactions” (Eur J Med Chem, 2024)
Where a SMILES comes first, the peptide text is derived from it. Bridges are numbered along the chain shown (N, C = ends). [ ]: non-standard residue; d: D form. hArg = N=C(N)NCCCC[C@H](N)C(=O)O; S5 = C=CCCC[C@](C)(N)C(=O)O

What was measured:
GTPase KRas [1] = target: T1, GTPase KRas (Homo sapiens, UniProt P01116, G12D); assay: Inhibition of KRas G12D mutant (unknown origin) by TR-FRET assay
GTPase KRas [2] = target: T1, GTPase KRas; assay: Binding affinity to KRas G12D mutant (unknown origin) assessed as dissociation constant by SPR analysis
GTPase HRas [3] = target: T2, GTPase HRas (Homo sapiens, UniProt P01112); assay: Binding affinity to wild-type H-Ras (unknown origin) assessed as dissociation constant by fluorescence polarization assay
GTPase HRas [4] = target: T2, GTPase HRas; assay: Binding affinity to HRas (unknown origin) assessed as dissociation constant
SOS1-KRAS [5] = target: SOS1-KRAS (Homo sapiens, UniProt P01116, G12D); assay: Inhibition of KRAS G12D mutant/SOS1 (unknown origin) interaction by TR-FRET assay; format: protein-complex assay
GTPase KRas [6] = target: T3, GTPase KRas (Homo sapiens, UniProt P01116); assay: Binding affinity to KRas (unknown origin) assessed as dissociation constant
GTPase KRas [7] = target: T3, GTPase KRas; assay: Binding affinity to GTP bound KRas (unknown origin) assessed as dissociation constant by fluorescence anisotropy assay
GTPase KRas [8] = target: T3, GTPase KRas; assay: Binding affinity to GppNHp bound KRas (unknown origin) assessed as dissociation constant by fluorescence anisotropy assay
NCI-H358 [9] = assay: Cytotoxicity against human NCI-H358 cells measured after 48 hrs by CCK-8 method; format: functional, cell-based; settings: NCI-H358, 48 h
NCI-H358 [10] = assay: Cytotoxicity against human NCI-H358 cells measured after 36 hrs by CCK-8 method; format: functional, cell-based; settings: NCI-H358, 36 h
GTPase KRas [11] = target: T4, GTPase KRas (Homo sapiens, UniProt P01116, G12C); assay: Binding affinity to KRas G12C mutant (unknown origin) assessed as dissociation constant by biolayer interferometry assay
NCI-H358 [12] = assay: Cytotoxicity against human NCI-H358 cells measured after 72 hrs by CCK-8 method; format: functional, cell-based; settings: NCI-H358, 72 h
NCI-H358 [13] = assay: Cytotoxicity against human NCI-H358 cells measured after 24 hrs by CCK-8 method; format: functional, cell-based; settings: NCI-H358, 24 h
GTPase KRas [14] = target: T5, GTPase KRas (Homo sapiens, UniProt P01116, G12V); assay: Binding affinity to KRas G12V mutant (unknown origin) assessed as apparent dissociation constant by fluorescence anisotropy analysis; settings: read-out: Kd(app)
[15] = Binding affinity to GDP bound RAF (unknown origin) assessed as dissociation constant; design: species or system Homo sapiens
[16] = target: Epidermal growth factor receptor (Homo sapiens) (UniProt P00533); assay: Inhibition of EGFR in human NCI-H1299 cells assessed as inhibition in MEK phosphorylation relative to control; format: cell-based; settings: concentration not given here
GTPase KRas/RAF1 = GTPase KRas/RAF1 (Homo sapiens, UniProt P01116); assay: Inhibition of KRAS/RAF interaction (unknown origin); format: protein assay
GTPase KRas [17] = target: T3, GTPase KRas; assay: Binding affinity to KRas (unknown origin) assessed as apparent dissociation constant by fluorescence anisotropy analysis; settings: read-out: Kd(app)
[18] = target: Epidermal growth factor receptor (Homo sapiens) (UniProt P00533); assay: Inhibition of EGFR in human NCI-H1299 cells assessed as inhibition in Akt phosphorylation relative to control; format: cell-based; settings: concentration not given here
GTPase KRas [19] = target: GTPase KRas (Homo sapiens, UniProt P01116, G12S); assay: Inhibition of KRas G12S mutant (unknown origin) by fluorescence polarization assay
[20] = Inhibition of KRas Q61H mutant (unknown origin) by fluorescence polarization assay; design: species or system Homo sapiens
GTPase KRas [21] = target: T3, GTPase KRas; assay: Inhibition of recombinant wild-type KRas (unknown origin) by fluorescence polarization assay
GTPase KRas [22] = target: T4, GTPase KRas; assay: Inhibition of KRas G12C mutant (unknown origin) by fluorescence polarization assay
GTPase KRas [23] = target: T5, GTPase KRas; assay: Inhibition of KRas G12V mutant (unknown origin) by fluorescence polarization assay
GTPase KRas [24] = target: T1, GTPase KRas; assay: Inhibition of KRas G12D mutant (unknown origin) by fluorescence polarization assay
GTPase KRas [25] = target: T1, GTPase KRas; assay: Inhibition of human KRas G12D mutant incubated for 0.5 hrs by absorbance based analysis
SOS1-KRAS [26] = target: T6, SOS1-KRAS (Homo sapiens, UniProt P01116); assay: Binding affinity to his-tagged N-terminal KRas (1 to 166 residues)/his-tagged catalytic domain SOS (564 to 1049 residues) (unknown origin) interaction extracted from Escherichia coli (BL21) assessed as dissociation constant by fluorescence polarization assay; format: protein-complex assay
SOS1-KRAS [27] = target: T6, SOS1-KRAS; assay: Binding affinity to his-tagged N-terminal GDP-bound KRas (1 to 166 residues)/his-tagged catalytic domain SOS (564 to 1049 residues) (unknown origin) interaction extracted from Escherichia coli (BL21) assessed as dissociation constant by fluorescence polarization assay; format: protein-complex assay
SOS1-KRAS [28] = target: T6, SOS1-KRAS; assay: Inhibition of his-tagged N-terminal GDP-bound KRas (1 to 166 residues)/his-tagged catalytic domain SOS (564 to 1049 residues) (unknown origin) interaction extracted from Escherichia coli (BL21) by fluorescence based spectroflurometric analysis; format: protein-complex assay

## CC[C@H](C)[C@@H]1NC(=O)[C@H](Cc2ccc(O)cc2)NC(=O)[C@H](CC(C)C)NC(=O)[C@@H]2CCCN2C(=O)[C@@H](NC(=O)[C@H](CCCNC(=N)N)NC(=O)[C@H](CCCNC(=N)N)NC(C)=O)CSSC[C@@H](C(=O)N[C@@H](CCCNC(=N)N)C(=O)N[C@@H](CCCNC(=N)N)C(N)=O)NC(=O)[C@H](C(C)C)NC(=O)[C@@H]2CCCN2C(=O)[C@H](CC(=O)O)NC(=O)[C@H](Cc2ccc(O)cc2)NC(=O)[C@H](CO)NC1=O (Ac-RRCPLYISYDPVCRR-NH2; disulfide 3-13)
GTPase KRas [1]
  IC50: 0.0089 µM
GTPase KRas [2]
  Kd: 0.051 µM

## C=CS(=O)(=O)NCCCC(=O)NCCCC[C@H](NC(=O)[C@H](CC(C)C)NC(=O)C[C@@H](CC(=O)O)NC(=O)[C@H](CC(C)C)NC(=O)[C@H](CCCNC(=N)N)NC(=O)[C@H](Cc1ccc(O)cc1)NC(=O)CC(C)(CC)NC(=O)CN1C/C=C\CCCC(=O)N[C@@H](Cc2ccccc2)C(=O)N[C@@H](CCC(=O)O)C1=O)C(=O)N[C@@H](CCCCN)C(=O)NCCC(=O)N[C@@H](CCC(=O)O)C(=O)N[C@@H](CCC(=O)O)C(=O)N[C@@H](C)C(=O)N[C@@H](CC(N)=O)C(N)=O (stereo not given in full)
GTPase HRas [3]
  Kd: 4.1 µM

## CC[C@H](C)[C@H](NC(=O)[C@H](Cc1c[nH]c2ccccc12)NC(C)=O)C(=O)NCC(=O)N[C@@H](CCCNC(=N)N)C(=O)N[C@@H](CC(C)C)C(=O)N[C@@H](CC(C)C)C(=O)N[C@H](C(=O)N[C@@]1(C)CCC/C=C\CCC[C@@](C)(C(=O)N[C@@H](CCCNC(=N)N)C(=O)N[C@@H](CC(N)=O)C(=O)NCC(=O)N[C@@H](CC(N)=O)C(N)=O)NC(=O)[C@H](CC(C)C)NC(=O)[C@H](CCCCNC(=N)N)NC(=O)[C@H](CCCNC(=N)N)NC1=O)[C@@H](C)O (Ac-WIGRLLT[S5]R[hArg]L[S5]RNGN-NH2; staple (Z) 8-12)
GTPase HRas [4]
  Kd: 3.92 µM
SOS1-KRAS [5]
  IC50: 0.016 µM
GTPase KRas [6]
  Kd: 3.92 µM

## CC(C)[C@H]1NC(=O)[C@H](CCCNC(=N)N)NC(=O)[C@@H](Cc2ccccc2)NC(=O)[C@@H]2CCCCNC(=O)c3cc(cc(c3)C(=O)N[C@H](Cc3ccc4ccccc4c3)C(=O)N[C@@H](CO)C(=O)N[C@@H](CCC(N)=O)C(=O)N[C@H](Cc3ccc4ccccc4c3)C(=O)N[C@@H](c3ccccc3)C(=O)N2)C(=O)NC[C@@H](C(N)=O)NC(=O)[C@H](CCCNC(=N)N)NCC1=O
GTPase KRas [7]
  Kd: 1.2 µM
GTPase KRas [8]
  Kd: 1.6 µM

## CC[C@H](C)[C@H](NC(=O)CNC(=O)[C@H](Cc1ccccc1)NC(C)=O)C(=O)N[C@@]1(C)CCC/C=C\CCC[C@@](C)(C(=O)N[C@@H](CC(C)C)C(=O)N[C@@H](CCCCN)C(=O)N[C@H](C(N)=O)[C@@H](C)O)NC(=O)[C@H](CC(N)=O)NC(=O)[C@H]([C@@H](C)O)NC(=O)[C@H](CC(C)C)NC1=O (Ac-FGI[S5]LTN[S5]LKT-NH2; staple (Z) 4-8)
NCI-H358 [9]
  IC50: 5.75 µM
NCI-H358 [10]
  IC50: 7.55 µM
GTPase KRas [11]
  Kd: 7.67 µM
NCI-H358 [12]
  IC50: 6.68 µM
NCI-H358 [13]
  IC50: 15.7 µM

## CC[C@H](C)[C@@H]1NC(=O)[C@H](Cc2cn(CCc3c(C)[nH]c4cc(Cl)cc(Cl)c34)nn2)NC(=O)[C@H](CC(N)=O)NC(=O)[C@H](CCCNC(=N)N)NC(=O)[C@H](Cc2ccccc2)NC(=O)[C@H](CC(C)C)NC(=O)[C@H](C)NC(=O)c2cc3cc(c2)C(=O)NC[C@@H](C(N)=O)NC(=O)[C@H](CCCNC(=N)N)NC(=O)[C@H](CCCNC(=N)N)NC(=O)[C@H](CCCNC(=N)N)NC(=O)[C@H](CCCNC(=N)N)NC(=O)[C@H](Cc2ccc4ccccc4c2)NC(=O)[C@H](Cc2ccccc2)NC(=O)[C@H](CCCCNC3=O)NC1=O
GTPase KRas [14]
  Kd: 17 µM
[15]
  Kd: 0.37 µM
[16]
  inhibition: 50%
GTPase KRas/RAF1
  IC50: 3.4 µM
GTPase KRas [17]
  Kd: 0.21 µM
[18]
  inhibition: 60%

## CC[C@H](C)[C@H](NC(=O)CNC(=O)[C@H](Cc1ccccc1)NC(=O)[C@H](Cc1ccccc1)NC(=O)[C@H](CCCNC(=N)N)NC(=O)[C@H](CCCNC(=N)N)NC(C)=O)C(=O)N[C@@]1(C)CCC/C=C\CCC[C@@](C)(C(=O)N[C@@H](CC(C)C)C(=O)N[C@@H](CCCCN)C(=O)N[C@H](C(=O)N[C@@H](CCC(=O)O)C(=O)N[C@@H](CCC(=O)O)C(=O)NCC(=O)N[C@@H](CC(N)=O)C(N)=O)[C@@H](C)O)NC(=O)[C@H](CC(N)=O)NC(=O)[C@H]([C@@H](C)O)NC(=O)[C@H](CC(C)C)NC1=O
GTPase KRas [19]
  IC50: 5 µM
[20]
  IC50: 5 µM
GTPase KRas [21]
  IC50: 5 µM
GTPase KRas [22]
  IC50: 5 µM
GTPase KRas [23]
  IC50: 5 µM
GTPase KRas [24]
  IC50: 5 µM

## CCCCCCC[C@@H]1NC(=O)[C@H](CO)NC(=O)[C@H](Cc2ccc(F)cc2)NC(=O)[C@H](CC(=O)O)NC(=O)[C@@H]2CCCN2C(=O)[C@H](Cc2c[nH]c3ccccc23)NC(=O)[C@H]2CSCCCSC[C@H](NC1=O)C(=O)N[C@@H](CCCC)C(=O)NCCC(=O)N2
GTPase KRas [25]
  EC50: 0.022 µM

## CC[C@H](C)[C@H](NC(=O)CN1C/C=C\CCC(=O)N[C@@H](Cc2ccccc2)C(=O)N[C@@H](CCC(=O)O)C1=O)C(=O)N[C@@H](Cc1ccc(O)cc1)C(=O)N[C@@H](CCCNC(=N)N)C(=O)N[C@@H](CC(C)C)C(=O)N[C@@H](CCC(=O)O)C(=O)N[C@@H](CC(C)C)C(=O)N[C@@H](CC(C)C)C(=O)N[C@@H](CCCCN)C(=O)N[C@@H](C)C(=O)N[C@@H](CCC(=O)O)C(=O)N[C@@H](CCC(=O)O)C(=O)N[C@@H](C)C(=O)N[C@@H](CC(N)=O)C(N)=O
SOS1-KRAS [26]
  Kd: 28 µM
SOS1-KRAS [5]
  IC50: 0.64 µM
SOS1-KRAS [27]
  Kd: 158 µM
SOS1-KRAS [28]
  IC50: 6.9 µM
